Data set [1] can be described thus: In vitro plasma protein binding (ultrafiltration, Centrifree). Type of data set: in vitro ADME. The conditions noted are these: 30 min at 37 °C, triplicate. How it is done: PPB of MDPM was investigated based on published procedures with minor adjustments (Gampfer et al. [2020]), (Mardal et al. [2016]). A volume of 450 µL fresh human blood plasma was spiked with 50 µL of a 5 µM methanolic solution of MDPM. The mixture was incubated for 30 min at 37 °C. Plasma aliquots of 100 µL and 400 µL were transferred to a new reaction tube (global approach, GA) and onto two-chambered Centrifree devices from Merck (Darmstadt, Germany), respectively. The Centrifree devices were centrifuged for 40 min and 1600×g to obtain 100 µL of ultrafiltrate (UF). UF and GA were precipitated using 50 µL acetonitrile (− 20 °C). The mixture was vortexed, cooled for 30 min at − 20 °C, and centrifuged for 3 min at 18,407×g. […] Experiments were done in triplicate. Fraction unbound (fu) and PPB was determined by comparing the area ratios of MDPM and trimipramine-d3 in the UF and GA using the following equations:1 fu=peak area ratioMDPMUF/ISUF/peak area ratioMDPMGA/ISGA 2 PPB[%]=1-fu∗100

The target of the next data set is CYP2D6 (Homo sapiens, UniProt P10635). Nature of the data set: Monooxygenase mapping (ten human cDNA-expressed CYP isoforms and FMO3). It is filed as in vitro ADME. Details: Then, pHLM (0.4 mg microsomal protein/mL) was added to each group except the negative control; tissue Discovery Life Sciences; host or cells: pooled human liver microsomes, 25 donors. The settings on record: MDPM 25 µM, CYP 50 pmol/mL each or FMO3 0.25 mg protein/mL, 90 and 270 min. How it is done:
As described elsewhere (Wagmann et al. [2016]) and with minor modifications, MDPM (25 µM) was incubated with 2.5 mM isocitrate, 0.8 U/mL isocitrate dehydrogenase, 100 U/mL superoxide dismutase, 0.6 mM NADP^+, 2.5 mM Mg^2+ and CYP1A2, CYP2A6, CYP2B6, CYP2C8, CYP2C9, CYP2C19, CYP2D6, CYP2E1, CYP3A4, CYP3A5 (50 pmol/mL each), or FMO3 (0.25 mg protein/mL) for 90 and 270 min at 37 °C. For incubations with CYP2A6 or CYP2C9, phosphate buffer was replaced with 90 mM Tris buffer, according to the manufacturer’s guideline. Thirty µL aliquots were taken at both timepoints. The reaction was stopped using 20 µL acetonitrile (− 20 °C) with 2.5 µM trimipramine-d3 as an internal standard. All incubations were done in duplicates and concentrations are final. […] Negative control samples without enzymes and blank samples without substrate were incubated to identify not metabolically formed compounds and to confirm the absence of interfering compounds.

Chain of CYP2D6 (P10635 whole entry, canonical isoform): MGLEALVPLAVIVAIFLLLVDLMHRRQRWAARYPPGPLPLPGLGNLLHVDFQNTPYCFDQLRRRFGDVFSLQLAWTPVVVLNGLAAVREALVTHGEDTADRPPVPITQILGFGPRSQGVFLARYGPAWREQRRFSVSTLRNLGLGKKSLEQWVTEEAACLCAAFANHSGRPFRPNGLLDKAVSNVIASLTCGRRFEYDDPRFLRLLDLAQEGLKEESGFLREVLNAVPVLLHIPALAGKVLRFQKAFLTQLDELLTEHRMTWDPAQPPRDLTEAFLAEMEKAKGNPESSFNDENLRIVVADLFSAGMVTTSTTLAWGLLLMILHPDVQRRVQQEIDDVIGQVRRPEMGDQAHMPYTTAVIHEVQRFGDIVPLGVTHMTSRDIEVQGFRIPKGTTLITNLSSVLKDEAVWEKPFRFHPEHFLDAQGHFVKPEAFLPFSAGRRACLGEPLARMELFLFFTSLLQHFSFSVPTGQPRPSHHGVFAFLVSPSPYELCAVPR

Turning to `CC1NCCOC1c1ccc2c(c1)OCO2` (stereo not drawn) [MDPM, 2-(1,3-benzodioxol-5-yl)-3-methylmorpholine], the fraction unbound at 30 min, 0.5 µM in data set [1] (fresh human blood plasma, read-out: plasma protein binding (PPB) (converted)) is 0.68. The “plasma protein binding (PPB)” value in data set [1] (human plasma) turned out to be 32%. Further, at CYP2D6, the “isozymes forming the demethylenyl metabolite (O-demethylenation of MDPM)” value is listed as “exclusively by CYP2D6”.

The record behind these values is PMC11968506, “Toxicokinetics and analytical toxicology of the phenmetrazine-derived new psychoactive substance 3,4-methylenedioxyphenmetrazine studied by means of in vitro systems” (Archives of Toxicology, 2025).
